# US7850984B2, “Protection of the female reproductive system from natural and artificial insults” (The General Hospital Corporation, priority 2000, dated 2010)
# Entries after “also recorded” stand apart in the source; their conditions may differ.
# Tests used:
# [1] = test system: germ cells of wild-type fetal ovaries (e13.5); assay: Fetal ovary culture without hormonal support, germ cell survival; format: cell-based, mouse
# Description: To determine the basis of the extensive oocyte hyperplasia in ASMase −/− neonates, fetal ovaries are harvested from wild-type and mutant mice at embryonic day 13.5 (e13.5) for in vitro culture as a model to recapitulate the events surrounding germline death that occurs as a normal component of female gametogenesis. A time-dependent activation of programmed cell death is observed in the germline of wild-type fetal ovaries cultured without hormonal support for up to 72 hours (FIG. 2A). […] These findings indicate that there exists an ovarian-intrinsic cell death defect in the ASMase-deficient mouse, and point to enhanced survival of the developing germline during oogenesis as the mechanism underlying the enlarged oocyte pool seen in mutant females at birth.
# Equivalent levels of in vitro germ cell survival are obtained by either ASMase gene knockout (FIG. 2A) or by S1P treatment (FIG. 2B).
# F1 and F2 mice = assay: Necropsy, histology and hematology of F1 and F2 offspring; format: in vivo; details: for HCT / HGB, Hemoglobin / MCH, Mean Corpuscular Hemoglobin / MCHC, Mean Corpuscular Hemoglobin Content / MCV, Mean Corpuscular Volume / RBC, Red Blood Cell Count / WBC, Total White Blood Cell Count: 0.1 Gy + S1P, mean, 95% confidence limit; for Pathology, gross necropsy / Pathology, histology: offspring of 0.1 Gy + S1P mothers
# Description: When the F1 animals reach 18-20 months of age and the F2 animals reach 12-16 months of age, all mice are euthanized and subjected to gross necropsy and biochemical analysis. Organs from a subgroup of 65 randomly selected animals in the two different generations are also subjected to complete histologic analysis.
# Eighteen to 20 month-old F1 mice, and 12-16 month-old F2 mice, are euthanized and gross pathology is assessed immediately upon death. In a total of 484 mice, the heart, lung, stomach, small and large intestine, liver, salivary gland, kidney, urinary bladder, brain, cervical spinal cord, muscle, bone, bone marrow, skin, pituitary, thyroid, pancreas, adrenal, lymph node, spleen, thymus, testis (males), seminal vesicle (males), prostate (males), ovary (females), and uterus (females) are evaluated. Any organ showing gross abnormalities is fixed with 10% paraformaldehyde, encased in paraffin, and stained with hematoxylin and eosin for in-depth histologic analysis. Furthermore, histology on all organs is performed on 65 randomly selected mice of different generations (F1 or F2), different genders, and different experimental treatments. From an additional 28 randomly-selected mice, blood is collected by cardiac puncture for hematologic analysis, and in 9 animals full differential counts are performed. Differential white cell counts are also performed in all mice displaying a pathological phenotype.
# [2] = test system: ovaries (oocyte-containing follicles); assay: S1P protection against radiation in vivo, histomorphometric count of non-atretic oocyte-containing follicles; set-up: species or system mouse
# Description: The serial sections from each ovary are aligned in order on glass microscope slides, stained with hematoxylin/picric methyl blue, and analyzed for the number of healthy (non-atretic) oocyte-containing primordial, primary and small preantral follicles as described by Perez et al. Nat. Genet.
# Young adult (postpartum day 40) wild-type female mice are anesthetized, and dorsal incisions are made to retrieve and expose the ovaries. Five μl of vehicle (PET) are injected into the bursa of one ovary of the pair while 5 μl of a stock of either 0.5 or 2 mM S1P, prepared in PET, are injected into the bursa of the contralateral ovary. Based on an estimated bursal cavity volume of 50 μl, the final concentrations of S1P in the bursal cavity for ovarian exposure following administration of the 0.5 and 2 mM stocks are approximately 50 and 200 μM, respectively. The ovaries are returned to the peritoneal cavity, the incisions are sutured, and the mice are allowed to recover for a 2 hour pretreatment period prior to a single exposure to 0.1 Gy of abdominally-directed ionizing radiation.
# [3] = test system: polychromatic erythrocytes of F0, F1 and F2 mice; assay: Micronuclei assay in polychromatic erythrocytes of tail blood; format: in vivo, mouse
# From the text: To evaluate the possibility of transgenerational transmission of DNA damage, the frequency of micronuclei is used as a sensitive indicator of the extent of propagated genomic damage (Trott, K. R., Jamali, M., Manti, L. & Teibe, A. Manifestations and mechanisms of radiation-induced genomic instability in V-79 Chinese hamster cells. Int. J. Radiat. Biol. 74, 787-791 (1998); Manti, L., Jamali, M., Prise, K. M., Michael B. D. & Trott, K. R. Genomic instability in Chinese hamster ovary cells after exposure to X rays or alpha particles of different mean energy transfer. Radiat. Res. 147, 22-28 (1997)). Tail blood samples from 16-18 month old non-irradiated, vehicle-treated and irradiated, or S1P-treated and irradiated F0 mice, 16-18 month old F1 mice, or 12-16 month old F2 mice, are smeared onto glass microscope slides coated with acridine orange (Shinko Corporation, New York, N.Y.), and coded prior to analysis. The frequency of micronuclei is then assessed in the 10^3 polychromatic erythrocytes by flourescence microscopy (Hayashi, M., Morita, T., Kodama, Y., Sofuni, T., & Ishidate, M., Jr. The micronucleus assay with mouse peripheral blood reticulocytes using acridine orange-coated slides. Mutat. Res. 245, 245-249 (1990)), after which the slides are decoded for data interpretation.
# oocytes = details: mouse oocytes cultured with S1P before doxorubicin exposure; Perez et al. (1997); cited from earlier work
# [4] = test system: ovaries (oocyte-containing follicles); details: Morita et al., Nat. Med. 6 (2000); cited from earlier work
# [5] = N=189, numbers in parenthesis = animals
smiles,measurement,setting,value
"CCCCCCCCCCCCC/C=C/[C@@H](O)[C@@H](N)COP(=O)(O)O [S1P, sphingosine-1-phosphate]",share of starting population of germ cells preserved,"[1]; after 72 hours of hormone deprivation, versus 0 h",Over one-half of the starting population of germ cells (0 h or Time 0) is preserved
same,germ cell survival / germ cell apoptosis in cultured fetal ovaries,"[1]; wild-type fetal ovaries, 72 hours in vitro without hormonal support, FB1 5-500 μM, S1P increasing concentrations",the reduced incidence of germ cell apoptosis conveyed by ASMase-deficiency is recapitulated
same,HCT,F1 and F2 mice; first group (N=69),45.4
same,"HGB, Hemoglobin",F1 and F2 mice; first group (N=69),14.2 g/dL
same,"MCH, Mean Corpuscular Hemoglobin",F1 and F2 mice; first group (N=69),15.3 pg
same,"MCHC, Mean Corpuscular Hemoglobin Content",F1 and F2 mice; first group (N=69),31.4 g/dL
same,"MCV, Mean Corpuscular Volume",F1 and F2 mice; first group (N=69),49.1 fL
same,"RBC, Red Blood Cell Count",F1 and F2 mice; first group (N=69),9.3e+12 L⁻¹
same,"WBC, Total White Blood Cell Count",F1 and F2 mice; first group (N=69),1.09e+10 L⁻¹
same,HCT,F1 and F2 mice; second group (N=189),46.3
same,"HGB, Hemoglobin",F1 and F2 mice; second group (N=189),14.9 g/dL
same,"MCH, Mean Corpuscular Hemoglobin",F1 and F2 mice; second group (N=189),15.9 pg
same,"MCHC, Mean Corpuscular Hemoglobin Content",F1 and F2 mice; second group (N=189),30.8 g/dL
same,"MCV, Mean Corpuscular Volume",F1 and F2 mice; second group (N=189),49.2 fL
same,"RBC, Red Blood Cell Count",F1 and F2 mice; second group (N=189),9.4e+12 L⁻¹
same,"WBC, Total White Blood Cell Count",F1 and F2 mice; second group (N=189),1.1e+10 L⁻¹
same,gross histologic or biochemical abnormalities in offspring,"F1 and F2 mice; F1 at 18-20 months, F2 at 12-16 months",No gross histologic or biochemical abnormalities
same,"Pathology, gross necropsy",F1 and F2 mice; N=69,Enlarged uterus; also recorded: Perineal tumor
same,"Pathology, histology","F1 and F2 mice; N=69, numbers in parenthesis = animals",LI in liver (2); also recorded: LI in lung (3); also recorded: Mucometra; also recorded: Lipoma
same,"Pathology, gross necropsy",F1 and F2 mice; [5],Dermatitis (3); also recorded: Cyst in right ovary; also recorded: Alopecia; also recorded: Traumatic injury
same,"Pathology, histology",F1 and F2 mice; [5],LI in lung (7); also recorded: Liver (3); also recorded: Kidney; also recorded: Ovarian cyst
same,preservation of the germ cell reserve,"[2]; S1P approx. 50 and 200 μM intrabursal, two hours before 0.1 Gy, ovaries two weeks later",significant and dose-dependent preservation of the germ cell reserve
same,side effects on the ovaries,[2]; general statement,safe and without side effects on the ovaries
same,protection of follicle populations after irradiation,"[2]; highest dose of S1P (200 μM in bursal cavity), two hours before 0.1 Gy, two weeks post-irradiation","complete protection of the quiescent (primordial) and growing (primary, preantral) follicle populations; also recorded: retain a completely normal distribution of oocyte-containing follicles at all stages of development; also recorded: indistinguishable from non-irradiated controls; also recorded: Complete protection of the female germline from radiation-induced death"
same,number of follicles at any stage of development versus vehicle-treated ovaries,"[2]; in the absence of irradiation, intrabursal S1P",does not significantly differ
same,frequency of micronuclei in F0 animals versus non-irradiated controls,"[3]; 0.1 Gy, S1P-treated, statistically significant (P<0.01)",small increase in the frequency of micronuclei over non-irradiated controls
same,"frequency of micronuclei, vehicle-treated versus S1P-treated irradiated mice","[3]; F0, 0.1 Gy",no significant difference in the frequency of micronuclei
same,protection of oocytes from doxorubicin-induced death in vitro,oocytes,protected the oocytes from death induced by subsequent doxorubicin exposure for up to 24 hours
same,protection of oocyte population from apoptotic death following radiotherapy,[4],essentially protects the entire oocyte population from apoptotic death
